Converted amounts (≈) assume the structure as drawn. “And” between values parts separate entries of the source, which are not always exact repeats. Identical values can stand only once. One block for each compound: values may come before it.
How the values were obtained:
Test in all cases: ≥ marks a high value that may be exact or a test limit, other limits are often not marked, values filed in µg/mL are converted to µM
[1] = tested on: Listeria ivanovii Li 4pVS2
[2] = tested on: Candida albicans ATCC 90028
[3] = tested on: Escherichia coli ATCC 25922
[4] = tested on: Pseudomonas aeruginosa ATCC 27853
[5] = tested on: Acinetobacter baumannii ATCC 19606
[6] = tested on: Candida parapsilosis ATCC 22019
[7] = tested on: Streptococcus pyogenes ATCC 19615
[8] = tested on: Enterococcus faecalis ATCC 29212
[9] = tested on: Staphylococcus aureus ATCC 25923
[10] = tested on: Klebsiella pneumoniae ATCC 13883
[11] = tested on: Staphylococcus aureus ATCC 9144
[12] = tested on: Bacillus megaterium ATCC 10778
Candida albicans MDM8 = tested on: Candida albicans MDM8
[13] = tested on: Bacillus subtilis ATCC 6633
[14] = tested on: Staphylococcus aureus ATCC 29213
[15] = tested on: Serratia marcescens ATCC 4112
[16] = tested on: Enterobacter cloacae beta-12
[17] = tested on: Staphylococcus aureus USA 300
[18] = tested on: Pseudomonas aeruginosa NCTC 13437
[19] = tested on: Klebsiella pneumoniae NCTC 13368
[20] = tested on: Escherichia coli NCTC 12923
[21] = tested on: Acinetobacter baumannii ATCC 17978
Escherichia coli SBS 363 = tested on: Escherichia coli SBS 363
Micrococcus luteus A270 = tested on: Micrococcus luteus A270
[22] = tested on: Pseudomonas aeruginosa PAO1
[23] = tested on: Pseudomonas aeruginosa NCIB 10421
[24] = tested on: Candida tropicalis IOC 4560
[25] = tested on: Klebsiella aerogenes ATCC 13048
[26] = tested on: Staphylococcus aureus ATCC 33591
[27] = tested on: Staphylococcus epidermidis ATCC 51625
[28] = tested on: Pseudomonas aeruginosa ATCC 19660
[29] = tested on: Enterococcus faecium ATCC 700221
[30] = tested on: Acinetobacter baumannii ATCC 17978D-5
[31] = tested on: Streptococcus pneumoniae ATCC 49619
Escherichia coli D31 = tested on: Escherichia coli D31
[32] = tested on: Pseudomonas aeruginosa ATCC 15442
[33] = tested on: Streptococcus mutans ATCC 25175
[34] = tested on: Candida albicans ATCC 10231
Escherichia coli O157 = tested on: Escherichia coli O157
[35] = tested on: Escherichia coli ATCC 25404
Salmonella typhimurium = tested on: Salmonella typhimurium
[36] = tested on: Micrococcus luteus ATCC 10420
[37] = tested on: Staphylococcus epidermidis ATCC 9709
Listeria monocytogenes = tested on: Listeria monocytogenes
Klebsiella pneumoniae = tested on: Klebsiella pneumoniae
Vibrio cholerae N16961 = tested on: Vibrio cholerae N16961
Staphylococcus aureus = tested on: Staphylococcus aureus

SMILES: C[C@H](NC(=O)[C@H](Cc1ccccc1)NC(=O)[C@H](C)NC(=O)[C@H](Cc1ccccc1)NC(=O)[C@H](C)NC(=O)[C@H](Cc1ccccc1)NC(=O)[C@H](CCCCN)NC(=O)[C@H](CCCCN)NC(=O)[C@H](C)NC(=O)[C@H](Cc1ccccc1)NC(=O)[C@H](CCCCN)NC(=O)[C@H](CCCCN)NC(=O)[C@H](Cc1ccccc1)NC(=O)[C@H](CCCCN)NC(=O)[C@H](CCCCN)NC(=O)[C@H](C)NC(=O)[C@H](Cc1ccccc1)NC(=O)[C@H](CCCCN)NC(=O)[C@H](CCCCN)NC(=O)[C@H](C)NC(=O)[C@@H](N)Cc1ccccc1)C(=O)N[C@@H](Cc1ccccc1)C(=O)O [FAKKFAKKFKKFAKKFAFAFAF]
MIC [25]: 12.1 µM (≈ 32 µg/mL)
MIC [4]: 12.1 µM (≈ 32 µg/mL)
MIC [26]: 24.2 µM (≈ 64 µg/mL)
MIC [27]: 3.02 µM (≈ 8 µg/mL)
MIC [28]: 12.1 µM (≈ 32 µg/mL)
MIC [29]: 12.1 µM (≈ 32 µg/mL)
MIC [30]: 12.1 µM (≈ 32 µg/mL)
MIC [31]: 6.04 µM (≈ 16 µg/mL)

SMILES: CC[C@H](C)[C@H](NC(=O)[C@@H](NC(=O)CN)C(C)C)C(=O)N[C@H](C(=O)N[C@@H](CC(=O)O)C(=O)N[C@@H](C)C(=O)N[C@@H](CC(C)C)C(=O)N[C@@H](CCCCN)C(=O)NCC(=O)N[C@@H](C)C(=O)N[C@@H](C)C(=O)N[C@@H](CCCCN)C(=O)N[C@H](C(=O)N[C@H](C(=O)N[C@@H](C)C(=O)N[C@@H](C)C(=O)N[C@@H](CCC(=O)O)C(=O)N[C@@H](CC(C)C)C(=O)N1CCC[C@H]1C(=O)N[C@@H](CCCN=C(N)N)C(=O)N[C@@H](CCCCN)C(=O)N[C@@H](C)C(=O)N[C@@H](Cc1cnc[nH]1)C(N)=O)C(C)C)[C@@H](C)O)[C@@H](C)O [GVITDALKGAAKTVAAELPRKAH]
MIC (Escherichia coli D31): ≥ 100 µM
MIC [32]: ≥ 100 µM
MIC [33]: ≥ 100 µM
MIC [34]: > 100 µM
MIC [9]: > 100 µM

SMILES: CC[C@H](C)[C@H](NC(=O)CNC(=O)[C@H](CC(C)C)NC(=O)[C@H](CC(C)C)NC(=O)[C@H](C)NC(=O)[C@H](CO)NC(=O)[C@H](CCCCN)NC(=O)[C@@H](NC(=O)CN)[C@@H](C)CC)C(=O)N[C@@H](C)C(=O)N[C@@H](CCCCN)C(=O)N[C@@H](CC(N)=O)C(=O)N[C@H](C(=O)NCC(=O)N[C@@H](CCSC)C(=O)N[C@@H](CO)C(=O)N[C@@H](CC(C)C)C(=O)N[C@@H](CC(C)C)C(=O)N[C@@H](CCC(N)=O)C(=O)N[C@@H](CCCCN)C(=O)N[C@@H](C)C(=O)N[C@@H](CCC(N)=O)C(=O)N[C@H]1CSSC[C@@H](C(N)=O)NC(=O)[C@H](CO)NC(=O)CNC(=O)[C@H](CO)NC(=O)[C@H](CC(C)C)NC(=O)[C@H](CCCCN)NC1=O)C(C)C [GIKSALLGIAKNVGMSLLQKAQCKLSGSC]
MIC (Klebsiella pneumoniae): 8 µM (≈ 23.3 µg/mL)
MIC (Vibrio cholerae N16961): 10 µM (≈ 29.2 µg/mL)
MIC [9]: 8 µM and 22 µM
MIC (Staphylococcus aureus): 16 µM (≈ 46.7 µg/mL)

The remaining lines, values ahead:

MIC [1]: ≥ 50 µM
MIC [2]: ≥ 200 µM
MIC [3]: 6.25 µM (≈ 16.5 µg/mL)
MIC [4]: 25 µM (≈ 66.1 µg/mL)
MIC [5]: 6.25 µM (≈ 16.5 µg/mL)
MIC [6]: ≥ 50 µM
MIC [7]: ≥ 50 µM
MIC [8]: > 100 µM
MIC [9]: 100 µM (≈ 264 µg/mL)
MIC [10]: ≥ 80 µM
SMILES: CC[C@H](C)[C@H](NC(=O)[C@H](CCCN=C(N)N)NC(=O)[C@H](Cc1ccc(O)cc1)NC(=O)CNC(=O)[C@H](Cc1ccc(O)cc1)NC(=O)[C@H](CCCN=C(N)N)NC(=O)[C@H](CC(C)C)NC(=O)[C@H](C)NC(=O)[C@H](CCC(N)=O)NC(=O)[C@H](CCC(=O)O)NC(=O)[C@@H](NC(=O)[C@H](CCC(N)=O)NC(=O)[C@H](CCCN=C(N)N)NC(=O)[C@H](CCSC)NC(=O)[C@H](Cc1ccc(O)cc1)NC(=O)[C@H](CCC(N)=O)NC(=O)[C@@H](N)CCCN=C(N)N)[C@@H](C)CC)C(=O)N[C@@H](CO)C(=O)N[C@@H](CCCN=C(N)N)C(=O)N[C@@H](CCCN=C(N)N)C(N)=O [RQYMRQIEQALRYGYRISRR]

MIC [11]: 5.08 µM (≈ 8 µg/mL)
MIC [12]: 0.78 µM (≈ 1.23 µg/mL)
MIC (Candida albicans MDM8): 1.56 µM (≈ 2.46 µg/mL)
MIC [13]: 0.78 µM (≈ 1.23 µg/mL)
MIC [14]: 1.56 µM (≈ 2.46 µg/mL)
MIC [15]: 0.36 µM (≈ 0.567 µg/mL)
MIC [16]: 3.13 µM (≈ 4.93 µg/mL)
MIC [17]: 10.2 µM (≈ 16 µg/mL)
MIC [18]: ≥ 40.6 µM
MIC [19]: 10.2 µM (≈ 16 µg/mL)
MIC [20]: 5.08 µM (≈ 8 µg/mL)
MIC [21]: 2.54 µM (≈ 4 µg/mL)
MIC (Escherichia coli SBS 363): 0.78 µM (≈ 1.23 µg/mL)
MIC (Micrococcus luteus A270): 0.78 µM (≈ 1.23 µg/mL)
MIC [22]: > 81.3 µM
MIC [23]: 6.25 µM (≈ 9.84 µg/mL)
MIC [24]: 0.78 µM (≈ 1.23 µg/mL)
SMILES: CC[C@H](C)[C@H](N)C(=O)N[C@@H](CC(C)C)C(=O)N[C@@H](CCCCN)C(=O)N[C@@H](CCCCN)C(=O)N[C@H](C(=O)N[C@@H](Cc1c[nH]c2ccccc12)C(=O)N[C@@H](CCC(=O)O)C(=O)NCC(=O)N[C@H](C(=O)N[C@@H](CCCCN)C(=O)N[C@@H](CO)C(=O)N[C@@H](CC(C)C)C(=O)N[C@@H](Cc1ccccc1)C(N)=O)[C@@H](C)CC)[C@@H](C)CC [ILKKIWEGIKSLF]

MIC (Escherichia coli O157): ≥ 64 µM
MIC [35]: ≥ 64 µM
MIC (Salmonella typhimurium): ≥ 64 µM
MIC [36]: 2 µM (≈ 2.94 µg/mL)
MIC [37]: 4 µM (≈ 5.88 µg/mL)
MIC [9]: 8 µM (≈ 11.8 µg/mL)
MIC (Listeria monocytogenes): 8 µM (≈ 11.8 µg/mL)
SMILES: CC(C)C[C@H](NC(=O)[C@H](CC(C)C)NC(=O)[C@H](CCCCN)NC(=O)[C@H](CO)NC(=O)[C@H](CC(C)C)NC(=O)[C@H](C)NC(=O)[C@H](Cc1cnc[nH]1)NC(=O)[C@H](Cc1c[nH]c2ccccc12)NC(=O)[C@H](CC(C)C)NC(=O)[C@H](C)NC(=O)CNC(=O)[C@H](CC(C)C)NC(=O)[C@@H](N)Cc1ccccc1)C(=O)O [FLGALWHALSKLL]

— DBAASP
